The text below walks through data of ChEMBL document CHEMBL3608266, “Active Constituents from Drynaria fortunei Rhizomes on the Attenuation of Aβ(25-35)-Induced Axonal Atrophy” (J Nat Prod, 2015).

The source made the active and inactive calls. No cut-off for these calls is given here.

The assay concerns Cortical neurone. The experiment in a line: Induction of axonal regeneration in mouse cortical neurons assessed as reversal of Abeta (25 to 35)-induced axonal atrophy at 10 uM treated 3 days after Abeta (25 to 35) challenge and measured 4 days post compound dosing by pNF-H and MAP2 immunostaining method. Type of assay: functional.

With `O=C(O)/C=C/c1ccc(O[C@@H]2O[C@H](CO)[C@@H](O)[C@H](O)[C@H]2O)c(O)c1`, the result was Active. The same measure for `C[C@@H]1O[C@@H](O[C@H]2[C@H](Oc3cc(O)c4c(c3)O[C@H](c3ccc(O)c(O)c3)CC4=O)O[C@H](CO)[C@@H](O)[C@@H]2O)[C@H](O)[C@H](O)[C@H]1O`: “Active”.
